Columns and labels:
[1] = test system: primary adherent fibroblast cell line derived from an Methylmalonic Acidemia (MMA) patient (GM01673, Coriell Institute for Medical Research); assay: Mitochondrial respiration (Seahorse XFe96, OCR), Spare Capacity AUC; assay type: cell-based, human; details: 10 μM compound, 1 μM FCCP for 20 cycles, relative to vehicle
Description: The effect of the compounds of the present disclosure on mitochondrial respiration was measured with a XFe96 Extracellular Flux Analyzer (Seahorse Bioscience, Agilent Technologies) and Oxygen consumption Rate (OCR) and Extracellular acidification rate (ECAR) determined.
Cell culture and treatments. Primary adherent fibroblasts were cultured in minimum essential medium (MEM) (Gibco, 25030081) supplemented with 2 mM L-Glutamine (Gibco, 25030081), 15% fetal bovine serum (FBS) (Gibco, 26400044) and 1% penicillin/streptomycin (Gibco, 5140122) at 37° C. and 5% CO2. Cells were collected for either passaging or experiment at ˜70-80% confluence. Cells were obtained by trypsinization and seeded at 10,000 cells/well in cell culture microplates (Seahorse Bioscience, 101085-004) and allowed to adhere for 48 hours in culture media. […]
Determining the optimized cell density and concentrations for stress test, such as FCCP, were achieved through methods well known to those of skill in the art. After baseline measurements of OCR, cells were challenged with compounds of the present disclosure at different concentrations (10 to 50 μM) or vehicle (DMSO, 0.1%) and a post-compound baseline was recorded. OCR was measured after sequentially adding to each well 1.5 μg/ml oligomycin (inhibitor of ATP synthase Sigma-Aldrich, 753531), then maximal OCR was determined with carbonyl cyanide 4-(trifluoromethoxy) phenylhydrazone (FCCP, Sigma-Aldrich, C2920), (uncoupler of oxidative phosphorylation) and 1.0 μM of rotenone (Sigma-Aldrich, R8875) plus antimycin A (Sigma-Aldrich, A8674) (inhibitors of mitochondrial complex I and III) for determination of rotenone-antimycin insensitive respiration together with Hoechst for nuclear staining in situ when normalized to cell counts. After the analysis and nuclear staining, the XFp microplate was transferred to the Cytation 5, and the nuclear images were captured, the individual nuclei were identified and counted by BioTek Gen5 software. […]

[2] = test system: Methylmalonic Acidemia (MMA) Primary fibroblasts (GM01673, Coriell Institute for Medical Research); assay: Measurement of total GSH and GSSG dimer (GSH/GSSG ratio); assay type: cell-based, human; details: 10 μM compound for 2 hours
Description: Primary adherent fibroblasts were cultured in minimum essential medium (MEM) (Gibco, 25030081) supplemented with 2 mM L-Glutamine (Gibco, 25030081), 15% fetal bovine serum (FBS) (Gibco, 26400044) and 1% penicillin/streptomycin (Gibco, 5140122) at 37° C. and 5% CO2. Cells were collected for either passaging or experiment at ˜70-80% confluence. Cells were obtained by trypsinization and seeded in a white cell culture microplates (Thermo Fisher Scientific, 152028) for luminescent measurement. Cells were obtained by trypsinization and […] were seeded and allowed to adhere for 16-18 hours to have confluency around 70-80% in the cell well with culture media. After 24 hours prior to measurements (37° C, 5% CO2) media was changed to Dulbecco's Modified Eagle Medium (DMEM, Agilent Seahorse cat #103575-100) with the appropriate supplements (1 mM glucose, 2 mM L-glutamine, 1 mM pyruvate, 10% FBS).
Assay was performed according to manufacturer instructions (Promega, V6612). At the end of appropriate time point, the assay requires one plate for total measurement of GSH and one plate for GSSG. For every assay a 11-point standard curve is prepared ranging from 8 μM to 0.013 μM. […] Finally, 100 μl/well of Luciferin Detection reagent were added and incubated for 15 minutes before the chemiluminescence was detected. Free GSH/GSSG ratio was calculated as (Total GSH-GSSH)/(GSSG/2). […]

**Q.** For `CC1(C)COC(=O)CCC(=O)SCCNC(=O)CCNC(=O)[C@@H]1O` [Compound 206, (R)-15-hydroxy-16,16-dimethyl-1-oxa-6-thia-9,13-diazacycloheptadecane-2,5,10,14-tetraone], which “increase of Spare Capacity AUC” value ([1]; medium with 1 mM glucose) is on record?
**A.** The value was “at least 50%”.

**Q.** And the “increase of Spare Capacity AUC” value ([1]; medium with 10 mM glucose, 2 mM glutamine, 1 mM pyruvate)?
**A.** The value was over 10%.

**Q.** What about the “increase of the GSH/GSSG ratio” value [2] of the same compound?
**A.** Its value is “at least 20%”.

— patent publication US20230348506A1, “MACROCYCLIC PANTETHEINE DERIVATIVES AND USES THEREOF” (VectivBio Comet AG, priority 2019, published 2023)
